This note sets out measurements from ChEMBL document CHEMBL1201862, “PubChem BioAssay data set” (2004).

The structures appear in SMILES notation. Values joined by “and” are separate entries in the source; they are usually repeats but may differ in a detail not shown here. Equal values may be shown once. Active and inactive are the calls of the source. Where only a bound is given, the exact number is not on record here.

For assay [1], the target named is T1, Alkaline phosphatase, tissue-nonspecific isozyme (Homo sapiens, UniProt P05186).
T1 sequence (P05186 whole entry): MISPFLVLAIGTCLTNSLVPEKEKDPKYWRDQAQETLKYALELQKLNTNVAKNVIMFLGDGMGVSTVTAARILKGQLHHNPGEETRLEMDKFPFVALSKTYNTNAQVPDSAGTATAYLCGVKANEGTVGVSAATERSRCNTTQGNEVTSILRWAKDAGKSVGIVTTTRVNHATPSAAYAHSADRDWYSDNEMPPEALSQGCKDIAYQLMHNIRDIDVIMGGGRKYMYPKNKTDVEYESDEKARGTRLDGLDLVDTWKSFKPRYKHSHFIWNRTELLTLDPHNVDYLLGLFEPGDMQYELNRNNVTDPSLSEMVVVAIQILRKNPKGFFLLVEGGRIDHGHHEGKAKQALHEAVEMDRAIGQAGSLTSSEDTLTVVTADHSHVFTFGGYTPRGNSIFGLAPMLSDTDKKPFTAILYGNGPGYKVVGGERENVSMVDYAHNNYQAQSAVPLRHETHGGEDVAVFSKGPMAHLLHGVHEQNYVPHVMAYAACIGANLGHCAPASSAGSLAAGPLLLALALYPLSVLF
Briefly: potency against alkaline phosphatase TNAP – biochemical, luminescent, dose response, SAR follow-up (AID 1056).

For assay [2], the target named is Alkaline phosphatase, placental type (Homo sapiens, UniProt P05187). Briefly: human placental alkaline phosphatase inhibition – biochemical, luminescence, confirmation (AID 1512). Format: functional.
Alkaline phosphatase, placental type, sequence (P05187 whole entry): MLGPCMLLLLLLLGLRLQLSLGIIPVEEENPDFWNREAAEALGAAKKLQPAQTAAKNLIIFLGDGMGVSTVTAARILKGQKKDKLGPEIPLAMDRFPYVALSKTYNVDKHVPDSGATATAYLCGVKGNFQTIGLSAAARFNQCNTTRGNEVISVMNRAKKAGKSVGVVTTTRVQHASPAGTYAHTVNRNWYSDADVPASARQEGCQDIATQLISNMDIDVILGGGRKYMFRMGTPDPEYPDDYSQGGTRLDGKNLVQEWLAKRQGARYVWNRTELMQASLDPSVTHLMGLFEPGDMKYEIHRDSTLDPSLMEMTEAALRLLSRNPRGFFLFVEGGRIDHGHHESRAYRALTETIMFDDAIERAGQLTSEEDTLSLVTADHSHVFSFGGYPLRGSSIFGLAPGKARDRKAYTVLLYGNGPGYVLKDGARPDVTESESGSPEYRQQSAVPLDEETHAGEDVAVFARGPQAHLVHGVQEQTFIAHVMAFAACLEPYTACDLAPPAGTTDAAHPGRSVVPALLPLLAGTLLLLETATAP
Assay [3] addresses Large T antigen (Simian virus 40, UniProt P03070). Format: functional, Betapolyomavirus macacae.
For assay [4], the target named is T2, Leucine aminopeptidase (Plasmodium falciparum 3D7, UniProt Q8IL11).
T2 sequence (Q8IL11 whole entry): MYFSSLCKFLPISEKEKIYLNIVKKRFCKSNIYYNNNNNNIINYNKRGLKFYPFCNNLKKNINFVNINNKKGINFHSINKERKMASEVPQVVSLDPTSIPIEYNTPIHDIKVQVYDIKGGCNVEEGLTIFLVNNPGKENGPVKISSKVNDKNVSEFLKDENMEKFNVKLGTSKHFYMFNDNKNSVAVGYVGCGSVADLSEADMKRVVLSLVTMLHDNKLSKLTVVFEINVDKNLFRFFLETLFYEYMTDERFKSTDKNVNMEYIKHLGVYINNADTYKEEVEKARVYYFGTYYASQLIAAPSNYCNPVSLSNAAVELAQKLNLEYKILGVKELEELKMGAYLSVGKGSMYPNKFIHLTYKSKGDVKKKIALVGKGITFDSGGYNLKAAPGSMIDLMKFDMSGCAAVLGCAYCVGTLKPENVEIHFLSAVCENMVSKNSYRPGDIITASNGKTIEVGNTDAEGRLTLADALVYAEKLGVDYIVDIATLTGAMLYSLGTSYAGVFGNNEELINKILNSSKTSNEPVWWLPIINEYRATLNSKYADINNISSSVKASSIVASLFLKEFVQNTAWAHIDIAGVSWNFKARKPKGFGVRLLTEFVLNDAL
Briefly: P. falciparum M17LAP inhibitors, primary screen, biochemical, fluorogenic H-Leu-NHMec substrate, 1536-well (AID 1619). Format: functional.

The target of assay [5] is T3, Bcl-2-like protein 10 (Homo sapiens, UniProt Q9HD36).
T3 sequence (Q9HD36 whole entry): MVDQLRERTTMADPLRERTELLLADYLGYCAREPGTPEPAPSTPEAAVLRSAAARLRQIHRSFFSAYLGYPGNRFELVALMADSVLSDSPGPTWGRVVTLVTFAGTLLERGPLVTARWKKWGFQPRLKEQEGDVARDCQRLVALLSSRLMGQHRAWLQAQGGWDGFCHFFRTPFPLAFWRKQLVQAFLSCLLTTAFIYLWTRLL
The assay can be described thus: Bcl-B/TR3 peptide binding disruption – biochemical, fluorescence polarization, FITC-TR3 peptide, selectivity assay for Bfl-1 inhibitor project, primary screen (AID 748).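 Further: fluorescence polarization from a fluorescein-labelled TR3 peptide binding purified Bcl-B.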

The nature of assay [6]: viability of HCT116 lacking mutant beta-catenin – cell-based, human colon tumor, dose response (AID 1045).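 Further: HCT116 colon tumor cells with beta catenin knocked out; cells exposed to compound for 60 hours.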 Type of assay: functional.
The target of assay [7] is T4, Heat shock factor protein 1 (Mus musculus, UniProt P38532).
T4 sequence (P38532 whole entry): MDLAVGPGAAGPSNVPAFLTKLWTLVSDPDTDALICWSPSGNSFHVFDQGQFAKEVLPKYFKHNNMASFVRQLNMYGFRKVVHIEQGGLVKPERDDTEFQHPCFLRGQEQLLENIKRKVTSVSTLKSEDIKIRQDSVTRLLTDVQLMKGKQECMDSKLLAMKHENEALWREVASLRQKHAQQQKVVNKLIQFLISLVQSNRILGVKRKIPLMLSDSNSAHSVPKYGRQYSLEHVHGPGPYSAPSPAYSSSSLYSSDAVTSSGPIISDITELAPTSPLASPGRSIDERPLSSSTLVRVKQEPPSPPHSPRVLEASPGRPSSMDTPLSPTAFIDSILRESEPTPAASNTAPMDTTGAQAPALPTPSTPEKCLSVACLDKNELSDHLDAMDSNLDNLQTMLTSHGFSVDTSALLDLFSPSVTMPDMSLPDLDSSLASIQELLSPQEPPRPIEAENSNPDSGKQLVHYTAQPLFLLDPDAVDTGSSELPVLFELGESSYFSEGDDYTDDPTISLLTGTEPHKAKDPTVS
The assay can be described thus: enhancement of HSF1-driven luciferase signal – cell-based, NIH3T3, luminescence, dose retest, confirmation (AID 435004).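 Further: stress induced by proteasome inhibitor MG132 added 30 min after compound; luciferase reporter driven by HSF1 response element in NIH3T3 cells; actives raise luminescence as potentiators of the MG132 stress response.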 Format: functional.

The target of assay [8] is T5, Replicative DNA helicase DnaB (Mycobacterium tuberculosis, UniProt P9WMR3).
T5 sequence (P9WMR3 whole entry): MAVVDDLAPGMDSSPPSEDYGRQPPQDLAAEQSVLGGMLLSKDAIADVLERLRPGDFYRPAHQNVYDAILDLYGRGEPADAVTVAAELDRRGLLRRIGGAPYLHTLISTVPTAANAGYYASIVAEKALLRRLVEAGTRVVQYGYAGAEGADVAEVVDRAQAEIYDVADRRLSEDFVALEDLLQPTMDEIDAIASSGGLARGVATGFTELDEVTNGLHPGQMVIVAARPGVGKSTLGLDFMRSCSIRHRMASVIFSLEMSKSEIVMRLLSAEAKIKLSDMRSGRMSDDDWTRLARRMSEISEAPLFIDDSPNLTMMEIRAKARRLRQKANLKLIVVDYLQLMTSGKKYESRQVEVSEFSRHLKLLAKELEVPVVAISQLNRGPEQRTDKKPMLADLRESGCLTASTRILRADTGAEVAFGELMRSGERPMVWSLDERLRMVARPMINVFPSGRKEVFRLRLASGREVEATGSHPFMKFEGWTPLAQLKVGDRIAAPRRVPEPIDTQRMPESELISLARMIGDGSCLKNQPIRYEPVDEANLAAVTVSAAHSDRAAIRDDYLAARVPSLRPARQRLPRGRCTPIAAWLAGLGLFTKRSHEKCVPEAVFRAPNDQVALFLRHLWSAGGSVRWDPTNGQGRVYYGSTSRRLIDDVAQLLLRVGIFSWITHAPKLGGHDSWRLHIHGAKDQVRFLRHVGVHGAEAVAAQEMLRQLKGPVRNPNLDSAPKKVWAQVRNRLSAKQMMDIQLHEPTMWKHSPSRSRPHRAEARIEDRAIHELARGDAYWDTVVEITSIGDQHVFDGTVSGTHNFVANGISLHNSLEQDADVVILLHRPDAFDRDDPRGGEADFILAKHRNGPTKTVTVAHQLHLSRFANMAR
Briefly: DnaB intein splicing inhibitors, dose response, biochemical, cell-free fluorescence (AID 449749). Type of assay: functional.

For assay [9], the system named is Saccharomyces cerevisiae. The assay can be described thus: S. cerevisiae Caspase-1/ASC signal blockers IC50, NALP1 inhibitor project selectivity test (AID 488863). Type of assay: functional, organism-based.
Assay [10] addresses T6, Protein RecA (Mycobacterium tuberculosis, UniProt P9WHJ3).
T6 sequence (P9WHJ3 whole entry): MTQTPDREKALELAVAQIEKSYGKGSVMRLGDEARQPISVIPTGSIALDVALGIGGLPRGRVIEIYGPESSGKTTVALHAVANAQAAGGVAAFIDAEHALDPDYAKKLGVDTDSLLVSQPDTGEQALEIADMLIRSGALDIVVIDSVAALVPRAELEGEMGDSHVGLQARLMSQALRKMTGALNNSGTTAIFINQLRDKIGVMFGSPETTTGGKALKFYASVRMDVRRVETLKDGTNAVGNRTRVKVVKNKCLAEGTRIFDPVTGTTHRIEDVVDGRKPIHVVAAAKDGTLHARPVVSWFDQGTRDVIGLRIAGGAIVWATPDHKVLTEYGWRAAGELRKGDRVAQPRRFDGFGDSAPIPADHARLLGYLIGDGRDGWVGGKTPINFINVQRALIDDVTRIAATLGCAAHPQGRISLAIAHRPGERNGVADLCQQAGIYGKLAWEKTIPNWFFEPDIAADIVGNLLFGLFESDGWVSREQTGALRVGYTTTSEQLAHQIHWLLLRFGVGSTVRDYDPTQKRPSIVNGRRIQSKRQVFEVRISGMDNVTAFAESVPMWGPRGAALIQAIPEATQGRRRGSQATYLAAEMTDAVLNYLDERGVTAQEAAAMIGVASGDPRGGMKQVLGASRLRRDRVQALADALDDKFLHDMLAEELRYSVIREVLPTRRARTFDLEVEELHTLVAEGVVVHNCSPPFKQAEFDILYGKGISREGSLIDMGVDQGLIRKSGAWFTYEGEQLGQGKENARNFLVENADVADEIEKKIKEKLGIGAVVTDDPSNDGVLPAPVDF
Briefly: Fluorescence Cell-Free Homogeneous Dose Retest to Identify Inhibitors of RecA-Intein Splicing Activity. [Related pubchem assays (depositor defined):AID2097, AID2223, AID489010, AID492950]. Type of assay: functional.

In assay [11] the target is NACHT, LRR and PYD domains-containing protein 1 (Homo sapiens, UniProt Q9C000). The assay can be described thus: NALP1 inhibitors in yeast, dose response, luminescent (AID 488860). Format: functional.
Assay [12] has as its target T7, Bifunctional protein GlmU (Mycobacterium tuberculosis, UniProt P9WMN3).
T7 sequence (P9WMN3 whole entry): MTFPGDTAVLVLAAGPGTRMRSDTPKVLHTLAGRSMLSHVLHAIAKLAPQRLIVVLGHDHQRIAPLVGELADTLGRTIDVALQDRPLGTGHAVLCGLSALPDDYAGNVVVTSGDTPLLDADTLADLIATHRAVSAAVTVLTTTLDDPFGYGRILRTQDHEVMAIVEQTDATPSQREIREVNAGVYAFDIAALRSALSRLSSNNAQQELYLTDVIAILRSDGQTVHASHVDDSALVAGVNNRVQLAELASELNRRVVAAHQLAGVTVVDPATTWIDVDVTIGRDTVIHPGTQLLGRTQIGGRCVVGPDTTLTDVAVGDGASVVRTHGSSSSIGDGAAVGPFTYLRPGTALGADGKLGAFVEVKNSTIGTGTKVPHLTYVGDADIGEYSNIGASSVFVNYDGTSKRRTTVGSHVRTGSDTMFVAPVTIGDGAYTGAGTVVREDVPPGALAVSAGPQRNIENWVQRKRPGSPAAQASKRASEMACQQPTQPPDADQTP
The assay can be described thus: Inhibitors of Mycobacterial Glucosamine-1-phosphate acetyl transferase (GlmU). Secondary screen. More on the design: species or system Mycobacterium tuberculosis H37Rv.

A short description of assay [13]: viability of PTEN-deleted HCT116 cells – cell-based, HCT116 PTEN knockout, dose response (AID 1047).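 Further: HCT116 colon tumor cells with PTEN knocked out; cells exposed to compound for 60 hours before readout; potency for loss of cell viability measured by luminescence.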 Format: functional.
Assay [14] has as its target CAAX prenyl protease 2 (Saccharomyces cerevisiae S288c, UniProt Q03530). Format: biochemical.
Assay [15] concerns the target Polyadenylate-binding protein 1 (Homo sapiens, UniProt P11940). Briefly: PABP inhibition in translation initiation, SAR follow-up (AID 435018). Type of assay: functional.
In assay [16] the target is Eukaryotic translation initiation factor 4H (Homo sapiens, UniProt Q15056). Briefly: inhibitors of translation initiation factor eIF4H – SAR follow-up (AID 435011). Type of assay: functional.
Assay [17] has as its target DNA dC->dU-editing enzyme APOBEC-3A (Homo sapiens, UniProt P31941). Briefly: Dose Response confirmation of small molecule APOBEC3A DNA Deaminase Inhibitors via a fluorescence-based single-stranded DNA deaminase assay. [Related pubchem assays (depositor defined):AID493011, AID493024]. Format: functional.
In assay [18] the target is DNA dC->dU-editing enzyme APOBEC-3G (Homo sapiens, UniProt Q9HC16). Type of assay: functional.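 Further: Dose-response counterscreen measuring inhibition of APOBEC3G DNA deaminase activity, run while confirming APOBEC3A inhibitors.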
DNA dC->dU-editing enzyme APOBEC-3G, sequence (Q9HC16 whole entry): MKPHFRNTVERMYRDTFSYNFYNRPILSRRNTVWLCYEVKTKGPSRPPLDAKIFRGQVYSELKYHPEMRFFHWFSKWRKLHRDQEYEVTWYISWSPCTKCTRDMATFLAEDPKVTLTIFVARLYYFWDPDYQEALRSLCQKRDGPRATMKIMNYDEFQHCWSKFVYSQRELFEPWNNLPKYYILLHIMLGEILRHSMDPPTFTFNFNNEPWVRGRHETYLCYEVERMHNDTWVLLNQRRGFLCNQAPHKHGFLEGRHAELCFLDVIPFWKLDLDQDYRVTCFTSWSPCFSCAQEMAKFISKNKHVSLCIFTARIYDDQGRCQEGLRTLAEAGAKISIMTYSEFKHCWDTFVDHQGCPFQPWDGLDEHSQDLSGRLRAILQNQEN
Assay [19] addresses Voltage-dependent T-type calcium channel subunit alpha-1H (Homo sapiens, UniProt O95180). Briefly: human CACNA1H calcium influx blockade – cell-based, synthetic library set 1, calcium flux (AID 493022). Format: functional.

As usually defined, the IC50 is the concentration needed to halve the response being measured. The term EC50 denotes the concentration that produces a half-maximal response. The term AC50 denotes the concentration at which the activity in the assay is half-maximal.

Polyadenylate-binding protein 1, sequence (P11940 whole entry): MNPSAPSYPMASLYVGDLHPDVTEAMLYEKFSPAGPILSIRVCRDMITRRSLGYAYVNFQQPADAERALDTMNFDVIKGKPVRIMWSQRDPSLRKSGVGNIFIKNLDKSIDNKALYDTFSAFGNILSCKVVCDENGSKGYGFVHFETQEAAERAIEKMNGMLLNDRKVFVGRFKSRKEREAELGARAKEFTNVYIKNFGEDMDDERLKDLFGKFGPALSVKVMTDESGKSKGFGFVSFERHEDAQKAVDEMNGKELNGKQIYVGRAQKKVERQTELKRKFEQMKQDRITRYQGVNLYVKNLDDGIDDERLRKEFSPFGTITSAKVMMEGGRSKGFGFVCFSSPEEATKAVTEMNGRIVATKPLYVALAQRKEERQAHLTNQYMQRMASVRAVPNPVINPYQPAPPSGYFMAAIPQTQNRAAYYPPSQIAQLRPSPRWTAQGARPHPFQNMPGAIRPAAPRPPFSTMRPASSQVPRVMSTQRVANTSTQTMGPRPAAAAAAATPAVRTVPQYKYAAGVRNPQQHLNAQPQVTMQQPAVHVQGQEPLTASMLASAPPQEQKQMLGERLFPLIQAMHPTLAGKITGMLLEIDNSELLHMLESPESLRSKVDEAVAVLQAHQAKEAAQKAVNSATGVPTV
Voltage-dependent T-type calcium channel subunit alpha-1H, sequence (O95180 whole entry): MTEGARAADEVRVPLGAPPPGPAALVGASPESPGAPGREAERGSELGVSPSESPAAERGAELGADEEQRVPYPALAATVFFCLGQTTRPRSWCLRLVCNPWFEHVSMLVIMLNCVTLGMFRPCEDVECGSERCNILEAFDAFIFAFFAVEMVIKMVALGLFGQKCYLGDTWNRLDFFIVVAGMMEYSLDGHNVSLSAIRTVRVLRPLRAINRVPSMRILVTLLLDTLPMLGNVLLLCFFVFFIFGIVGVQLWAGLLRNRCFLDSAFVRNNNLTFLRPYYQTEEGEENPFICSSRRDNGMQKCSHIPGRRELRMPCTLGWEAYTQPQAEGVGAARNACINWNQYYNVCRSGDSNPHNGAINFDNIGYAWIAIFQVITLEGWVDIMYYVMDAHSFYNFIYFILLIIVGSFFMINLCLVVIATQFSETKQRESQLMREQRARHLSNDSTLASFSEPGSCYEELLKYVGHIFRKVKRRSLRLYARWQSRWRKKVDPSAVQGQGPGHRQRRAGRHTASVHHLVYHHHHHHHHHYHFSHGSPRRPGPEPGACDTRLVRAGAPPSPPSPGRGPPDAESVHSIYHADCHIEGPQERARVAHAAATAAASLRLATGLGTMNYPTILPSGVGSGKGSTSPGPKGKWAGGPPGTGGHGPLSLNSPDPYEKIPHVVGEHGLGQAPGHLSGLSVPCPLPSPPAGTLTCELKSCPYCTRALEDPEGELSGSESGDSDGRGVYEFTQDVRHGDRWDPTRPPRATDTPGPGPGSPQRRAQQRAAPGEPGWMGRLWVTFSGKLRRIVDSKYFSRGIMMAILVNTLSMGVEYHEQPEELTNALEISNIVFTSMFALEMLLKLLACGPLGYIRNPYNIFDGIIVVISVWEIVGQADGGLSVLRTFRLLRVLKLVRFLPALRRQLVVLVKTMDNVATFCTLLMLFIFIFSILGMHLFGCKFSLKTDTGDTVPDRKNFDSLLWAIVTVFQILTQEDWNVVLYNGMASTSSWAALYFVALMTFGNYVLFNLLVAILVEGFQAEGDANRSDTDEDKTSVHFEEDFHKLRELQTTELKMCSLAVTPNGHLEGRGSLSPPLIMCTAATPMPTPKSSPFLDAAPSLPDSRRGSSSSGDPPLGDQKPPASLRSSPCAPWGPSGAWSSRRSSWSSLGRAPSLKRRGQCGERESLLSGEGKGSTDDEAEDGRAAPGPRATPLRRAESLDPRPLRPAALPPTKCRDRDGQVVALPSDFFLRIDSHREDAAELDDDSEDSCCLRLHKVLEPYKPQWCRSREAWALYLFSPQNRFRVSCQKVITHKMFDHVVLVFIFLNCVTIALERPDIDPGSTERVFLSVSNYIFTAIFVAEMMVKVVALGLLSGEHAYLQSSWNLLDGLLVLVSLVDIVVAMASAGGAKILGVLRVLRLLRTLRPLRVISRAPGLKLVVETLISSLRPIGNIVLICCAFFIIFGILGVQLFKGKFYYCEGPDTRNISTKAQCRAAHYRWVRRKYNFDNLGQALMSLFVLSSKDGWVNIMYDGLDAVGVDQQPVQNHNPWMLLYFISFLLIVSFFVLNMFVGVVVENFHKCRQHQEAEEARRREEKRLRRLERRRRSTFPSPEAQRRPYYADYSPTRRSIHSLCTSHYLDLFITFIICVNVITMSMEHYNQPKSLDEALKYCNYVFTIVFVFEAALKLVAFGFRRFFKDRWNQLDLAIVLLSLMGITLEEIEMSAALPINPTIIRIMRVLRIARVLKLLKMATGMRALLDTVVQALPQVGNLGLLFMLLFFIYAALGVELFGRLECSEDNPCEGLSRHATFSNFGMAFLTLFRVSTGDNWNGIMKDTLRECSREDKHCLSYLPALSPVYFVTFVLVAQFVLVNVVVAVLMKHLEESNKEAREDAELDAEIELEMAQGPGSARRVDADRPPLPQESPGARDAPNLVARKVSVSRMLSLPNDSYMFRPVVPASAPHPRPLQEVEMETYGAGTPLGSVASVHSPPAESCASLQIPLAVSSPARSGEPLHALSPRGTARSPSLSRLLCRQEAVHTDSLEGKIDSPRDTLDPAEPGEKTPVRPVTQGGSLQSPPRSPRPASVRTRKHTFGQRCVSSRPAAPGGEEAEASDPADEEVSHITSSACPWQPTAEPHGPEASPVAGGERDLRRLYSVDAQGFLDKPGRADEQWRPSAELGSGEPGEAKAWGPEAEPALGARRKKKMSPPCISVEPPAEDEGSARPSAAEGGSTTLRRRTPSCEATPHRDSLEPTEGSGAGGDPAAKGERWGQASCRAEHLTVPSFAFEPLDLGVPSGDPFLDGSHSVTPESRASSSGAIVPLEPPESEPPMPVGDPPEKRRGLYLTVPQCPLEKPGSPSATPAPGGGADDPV
Large T antigen, sequence (P03070 whole entry): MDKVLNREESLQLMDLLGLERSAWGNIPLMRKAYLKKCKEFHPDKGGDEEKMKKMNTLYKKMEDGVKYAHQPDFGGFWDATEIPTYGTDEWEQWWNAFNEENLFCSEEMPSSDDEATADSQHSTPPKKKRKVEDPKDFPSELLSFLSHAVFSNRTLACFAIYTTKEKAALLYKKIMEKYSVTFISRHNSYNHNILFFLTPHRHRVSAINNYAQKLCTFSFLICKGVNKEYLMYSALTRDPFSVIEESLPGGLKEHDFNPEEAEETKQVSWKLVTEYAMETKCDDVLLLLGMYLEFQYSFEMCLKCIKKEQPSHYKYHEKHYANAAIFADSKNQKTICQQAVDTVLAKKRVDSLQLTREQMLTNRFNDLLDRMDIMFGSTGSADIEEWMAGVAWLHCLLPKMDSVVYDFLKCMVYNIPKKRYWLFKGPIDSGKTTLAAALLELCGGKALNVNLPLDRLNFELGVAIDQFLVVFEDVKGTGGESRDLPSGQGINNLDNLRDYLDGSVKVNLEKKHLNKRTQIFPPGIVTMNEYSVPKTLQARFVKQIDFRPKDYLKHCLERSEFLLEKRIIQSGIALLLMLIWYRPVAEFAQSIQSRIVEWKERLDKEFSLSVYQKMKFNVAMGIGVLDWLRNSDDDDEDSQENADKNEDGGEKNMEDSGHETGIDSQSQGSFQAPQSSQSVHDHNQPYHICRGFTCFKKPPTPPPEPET
DNA dC->dU-editing enzyme APOBEC-3A, sequence (P31941 whole entry): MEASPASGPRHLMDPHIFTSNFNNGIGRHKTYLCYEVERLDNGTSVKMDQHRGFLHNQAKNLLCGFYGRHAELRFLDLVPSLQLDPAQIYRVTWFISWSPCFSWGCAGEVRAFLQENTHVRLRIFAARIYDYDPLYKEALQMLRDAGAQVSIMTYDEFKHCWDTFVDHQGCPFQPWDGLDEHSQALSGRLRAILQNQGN

On to `C=CCn1c(SCC(=O)c2ccc(O)c(O)c2)nnc1-c1ccccc1OC`, for which the IC50 in [1] was > 100 µM (inactive) and 44.8 µM (active); in [2], 2.6 µM (active) and 2.79 µM (active); in assay [3], 14.7 µM (active); in assay [4], 22.8 µM (active); in assay [5], > 100 µM (inactive).

As to `Cn1cnc([N+](=O)[O-])c1S(=O)(=O)c1ccc(Cl)cc1`, the EC50 is 5.88 µM (active) in assay [6], 17.8 µM (active) in [7], 8.29 µM (active) in assay [10] and 6.79 µM (active) in assay [13]. Besides, in assay [8], the AC50 was 19.5 µM (active). Also, the IC50 in assay [9] is 19.8 µM (active); in assay [11], 17.7 µM (active); in [12], 101 µM (active).

In the case of `O=C(c1cnc(Cl)c(Cl)c1)N1CCC(Cc2ccccc2)CC1`, in assay [14], the AC50 is 18.2 µM (active).

`CCN1C(=O)CC(C(=O)Nc2ccc(F)cc2)S/C1=N\c1ccccc1OC` (centres undefined): the IC50 in assay [15] and in assay [16] was > 100 µM (inactive) throughout.

For `Cc1n(Cc2ccccc2)c2ccc(Cl)cc2[n+]1C`, the IC50 in [17] is 2.46 µM (active); in assay [18] it was 4.75 µM (active).

On to `O=C(COc1ccc(F)c(Cl)c1)Nc1nnc(-c2ccc(F)cc2)o1`, for which, in [19], the EC50 was 1.7 µM (active).
